Tested on: B16F0 melanoma tumour
Experiment: Biodistribution in B16 melanoma bearing mice
Assay type: in vivo, C57BL/6J mice
Settings: B16 melanoma bearing mice
Description: Animal experiments were performed in compliance with the NHMRC Australian Code of Practice for the care and use of animals for scientific purposes. Female C57BL/6J black and BALB/c nude albino mice of 5 weeks age were obtained from the Animal Resources Centre, Western Australia. B16F0 murine melanoma cells were originally obtained from European Collection of Cell Cultures (UK) and A375 human amelanotic melanoma cells were originally obtained from American Type Culture Collection (USA). Before transplantation, B16F0 and A375 melanoma cells were maintained as a monolayer in RPMI culture medium supplemented with 10% foetal calf serum and antibiotics and passaged with trypsinisation. Early passages were frozen and stored in liquid nitrogen. Cells were passaged to P=10 and then discarded. Frozen aliquots were grown in a monolayer culture to between 80-95% confluence and for transplantation were trypsinised and washed with Ca^2+ and Mg^2+ free phosphate buffered saline (PBS). For inoculation, B16F0 melanoma cells were resuspended in Ca^2+ and Mg^2+ free PBS at 3 or 5×10^6 viable cells per ml and 0.1 ml was subcutaneously injected at the left flank of 6-7 weeks old C57BL/6J mice. Eleven days later, tumours could be palpated in >98% of inoculated animals. A375 human melanoma cells were resuspended at 1×10^7 viablecells per ml and 0.1 ml was injected subcutaneously at the left flank of 6 weeks old BALB/c nude mice and 25-26 days later tumours could be palpated with ˜60% of inoculated animals developing tumours.
Eleven days (B16F0 melanoma) and 25 days (A375 human melanoma) after tumour transplantation, the [^18F]nicotinamides (0.5-1.5 MBq, 100 μl) and [^123I]nicotinamide (0.37-0.74 MBq, 100 μl) derivatives were injected intravenously via the tail vein into mice (15-18 g). Time points of 1, 3, 6, 24, 48, 72 h after injection were chosen for determining the distribution of each compound in various organs and tissues for the iodine-123 labelled compounds and between 15 min and 6 hours (e.g. 15 min, 30 min, 1 h, 2 h, 4 h or 6 h) were chosen for the ^18F-labelled compounds. At defined times post injection, groups of mice (n=5) were weighed, sacrificed by CO2 administration followed by cervical dislocation and dissected. Selected organs were weighed and their radioactivity measured with a γ-counter. The remaining activity in the carcass was also determined in order to obtain the total activity in the mouse at defined time points. The fraction of injected activity (% ID) in the organ was calculated by comparison with suitable dilutions of the injected dose. Then, the radioactivity concentration in the organ (% ID/g) was found by dividing the % ID for each organ by the weight of the organ.

CCCCN(C)CCCCNC(=O)c1ccc(F)nc1 [[^18F]MEL4, 6-Fluoro-N-[4-(butyl(methyl)amino)butyl]nicotinamide]
uptake BLOOD (15 min): 0.68 % ID/g
uptake BONE (15 min): 3.89 % ID/g
uptake BRAIN (15 min): 0.84 % ID/g
uptake EYES (15 min): 11.27 % ID/g
uptake GIT (15 min): 8.23 % ID/g
uptake HEART (15 min): 2.49 % ID/g
uptake KIDNEY (15 min): 15.88 % ID/g
uptake LIVER (15 min): 30.69 % ID/g
uptake LUNGS (15 min): 12.06 % ID/g
uptake MUSCLE (15 min): 2.83 % ID/g
uptake SKIN (15 min): 2.53 % ID/g
uptake SPLEEN (15 min): 11.19 % ID/g
uptake STOMACH (15 min): 8.52 % ID/g
uptake THYROID (15 min): 10.16 % ID/g
uptake TUMOUR (15 min): 4.01 % ID/g
uptake BLOOD (1 h): 0.32 % ID/g
uptake BONE (1 h): 2.03 % ID/g
uptake BRAIN (1 h): 0.75 % ID/g
uptake EYES (1 h): 12.65 % ID/g
uptake GIT (1 h): 5.78 % ID/g
uptake HEART (1 h): 0.98 % ID/g
uptake KIDNEY (1 h): 4.64 % ID/g
uptake LIVER (1 h): 36.76 % ID/g
uptake LUNGS (1 h): 4.49 % ID/g
uptake MUSCLE (1 h): 1.00 % ID/g
uptake SKIN (1 h): 1.61 % ID/g
uptake SPLEEN (1 h): 7.38 % ID/g
uptake STOMACH (1 h): 3.31 % ID/g
uptake THYROID (1 h): 5.37 % ID/g
uptake TUMOUR (1 h): 4.79 % ID/g
uptake BLOOD (3 h): 0.21 % ID/g
uptake BONE (3 h): 1.41 % ID/g
uptake BRAIN (3 h): 0.57 % ID/g
uptake EYES (3 h): 14.28 % ID/g
uptake GIT (3 h): 4.18 % ID/g
uptake HEART (3 h): 0.71 % ID/g
uptake KIDNEY (3 h): 2.89 % ID/g
uptake LIVER (3 h): 32.81 % ID/g
uptake LUNGS (3 h): 3.08 % ID/g
uptake MUSCLE (3 h): 0.53 % ID/g
uptake SKIN (3 h): 1.09 % ID/g
uptake SPLEEN (3 h): 5.31 % ID/g
uptake STOMACH (3 h): 2.36 % ID/g
uptake THYROID (3 h): 2.92 % ID/g
uptake TUMOUR (3 h): 5.31 % ID/g
uptake BLOOD (6 h): 0.14 % ID/g
uptake BONE (6 h): 1.03 % ID/g
uptake BRAIN (6 h): 0.37 % ID/g
uptake EYES (6 h): 15.75 % ID/g
uptake GIT (6 h): 3.08 % ID/g
uptake HEART (6 h): 0.52 % ID/g
uptake KIDNEY (6 h): 1.80 % ID/g
uptake LIVER (6 h): 26.41 % ID/g
uptake LUNGS (6 h): 2.23 % ID/g
uptake MUSCLE (6 h): 0.36 % ID/g
uptake SKIN (6 h): 0.89 % ID/g
uptake SPLEEN (6 h): 4.11 % ID/g
uptake STOMACH (6 h): 1.79 % ID/g
uptake THYROID (6 h): 1.98 % ID/g
uptake TUMOUR (6 h): 5.29 % ID/g

CCN(CC)CCNC(=O)c1cccnc1F [[^18F]MEL6, 2-Fluoro-N-[2-(diethylamino)ethyl]nicotinantide]
uptake BLOOD (15 min): 2.8 % ID/g
uptake BONE (15 min): 4.8 % ID/g
uptake BRAIN (15 min): 6.2 % ID/g
uptake EYES (15 min): 36.7 % ID/g
uptake GIT (15 min): 7.8 % ID/g
uptake HEART (15 min): 3.7 % ID/g
uptake KIDNEY (15 min): 16.4 % ID/g
uptake LIVER (15 min): 12.2 % ID/g
uptake LUNGS (15 min): 5.0 % ID/g
uptake MUSCLE (15 min): 4.0 % ID/g
uptake SKIN (15 min): 2.7 % ID/g
uptake SPLEEN (15 min): 11.8 % ID/g
uptake STOMACH (15 min): 14.7 % ID/g
uptake THYROID (15 min): 4.5 % ID/g
uptake TUMOUR (15 min): 10.6 % ID/g
uptake BLOOD (1 h): 0.9 % ID/g
uptake BONE (1 h): 3.4 % ID/g
uptake BRAIN (1 h): 1.6 % ID/g
uptake EYES (1 h): 38.0 % ID/g
uptake GIT (1 h): 7.1 % ID/g
uptake HEART (1 h): 1.2 % ID/g
uptake KIDNEY (1 h): 4.0 % ID/g
uptake LIVER (1 h): 4.9 % ID/g
uptake LUNGS (1 h): 1.5 % ID/g
uptake MUSCLE (1 h): 1.2 % ID/g
uptake SKIN (1 h): 1.0 % ID/g
uptake SPLEEN (1 h): 9.2 % ID/g
uptake STOMACH (1 h): 6.8 % ID/g
uptake THYROID (1 h): 2.2 % ID/g
uptake TUMOUR (1 h): 14.6 % ID/g
uptake BLOOD (3 h): 0.2 % ID/g
uptake BONE (3 h): 4.6 % ID/g
uptake BRAIN (3 h): 0.4 % ID/g
uptake EYES (3 h): 36.3 % ID/g
uptake GIT (3 h): 7.1 % ID/g
uptake HEART (3 h): 0.3 % ID/g
uptake KIDNEY (3 h): 0.8 % ID/g
uptake LIVER (3 h): 1.9 % ID/g
uptake LUNGS (3 h): 0.3 % ID/g
uptake MUSCLE (3 h): 0.3 % ID/g
uptake SKIN (3 h): 0.2 % ID/g
uptake SPLEEN (3 h): 2.5 % ID/g
uptake STOMACH (3 h): 1.9 % ID/g
uptake THYROID (3 h): 2.1 % ID/g
uptake TUMOUR (3 h): 17.3 % ID/g
uptake BLOOD (6 h): 0.1 % ID/g
uptake BONE (6 h): 5.6 % ID/g
uptake BRAIN (6 h): 0.1 % ID/g
uptake EYES (6 h): 27.4 % ID/g
uptake GIT (6 h): 3.6 % ID/g
uptake HEART (6 h): 0.2 % ID/g
uptake KIDNEY (6 h): 0.2 % ID/g
uptake LIVER (6 h): 1.0 % ID/g
uptake LUNGS (6 h): 0.2 % ID/g
uptake MUSCLE (6 h): 0.2 % ID/g
uptake SKIN (6 h): 0.9 % ID/g
uptake SPLEEN (6 h): 0.5 % ID/g
uptake STOMACH (6 h): 0.7 % ID/g
uptake THYROID (6 h): 3.2 % ID/g
uptake TUMOUR (6 h): 4.8 % ID/g
